This note sets out measurements from patent US20210220356A1, “DIHYDROPYRIMIDINE DERIVATIVES AND USES THEREOF IN THE TREATMENT OF HBV INFECTION OR OF HBV-INDUCED DISEASES” (Janssen Sciences Ireland Unlimited Company, priority 2018, published 2021).

For one data set, the system named is HepG2.2.15 cells. Briefly: Cytotoxicity determination in HepG2.2.15 cells (CCK-8). The format is cell-based. The following applies: HepG2.2.15 cells, 5,000 cells/well, 6 days of compound treatment, CCK-8 absorbance 450 nm, highest concentration 100 uM. The method, then:
(§1) • HepG2.2.15 (the HepG2.2.15 cell line can be produced by transfection of the HepG2 cell line as described in Sells, Chen, and Acs 1987 (Proc. Natl. Acad. Sci. USA 84: 1005-1009), and the HepG2 cell line is available from ATCC® under number HB-8065™)
(§2) Seed the cell HepG2.2.15 cells into 96-well plate in 2% FBS culture medium at the density of 40,000 cells/well and 5,000 cells/well for HBV inhibitory activity and cytotoxicity determination, respectively. After seeding, incubate the cell plates at 37° C., 5% CO2 overnight. The next day, medium containing compounds is added to the cell to treat the cells for 6 days with medium refreshed once in the middle of the treatment. 8 dose points with 3 folds dilution of each compound were adopted and the highest concentration of the compounds is 10 uM and 100 uM for HBV inhibitory activity and cytotoxicity determination, respectively.
After 6 days of compounds treatment, add 20 μl CCK-8 reagents to each well of cytotoxicity assay plates, incubate the plate at 37° C., 5% CO2 for 2.5 h and measure the absorbance at 450 nm wavelength, at the same time read the absorbance at 630 nm wavelength as reference.
(§3) EC50 and CC50 values are calculated by the GRAPHPAD PRISM software.

A further data set concerns HBV. Briefly: HBV inhibitory activity in HepG2.2.15 cells (HBV DNA in culture medium by q-PCR). In kind it is cell-based. The following applies: HepG2.2.15 cells, 40,000 cells/well, 6 days of compound treatment, HBV DNA in culture medium by q-PCR, highest concentration 10 uM, read-out: EC50. As to the method: as §1, §2
The HBV DAN change in the cell culture medium induced by the compounds is measured by q-PCR method. Briefly, the HBV DNA in the culture medium is extracted using QIAamp 96 DNA Blood Kit according to the manual and then quantified by q-PCR using the primers and probe in the table below.
as §3

Read-outs that look alike come from different tables or passages of the source.

Molecule `CCOC(=O)C1=C(C2CCc3nn(CCC(=O)O)cc3C2)NC(c2nccs2)=NC1c1ccc(F)c(F)c1Cl` (single isomer, unassigned) [Compound 34c, 3-(5-(6-(2-chloro-3,4-difluorophenyl)-5-(ethoxycarbonyl)-2-(thiazol-2-yl)-3,6-dihydropyrimidin-4-yl)-4,5,6,7-tetrahydro-2H-indazol-2-yl)propanoic acid] returned a CC50 in the data set on HepG2.2.15 cells of 14.9 µM. Besides, the concentration giving a half-maximal response (EC50) with HBV was less than 0.0046 µM.
For `CCOC(=O)C1=C(C2CCc3nn(CCC(=O)O)cc3C2)NC(c2nccs2)=NC1c1ccc(F)c(F)c1Cl` (single isomer, unassigned) [Compound 34d, 3-(5-(6-(2-chloro-3,4-difluorophenyl)-5-(ethoxycarbonyl)-2-(thiazol-2-yl)-3,6-dihydropyrimidin-4-yl)-4,5,6,7-tetrahydro-2H-indazol-2-yl)propanoic acid] the same measures were 20.6 µM and 0.146 µM.
The matching figures for `CCOC(=O)C1=C(C2CCc3nn(CC(C)(C)C(=O)O)cc3C2)NC(c2nccs2)=NC1c1ccc(F)c(F)c1Cl` (single isomer, unassigned) [Compound 53b, 3-(5-(6-(2-Chloro-3,4-difluorophenyl)-5-(ethoxycarbonyl)-2-(thiazol-2-yl)-3,6-dihydropyrimidin-4-yl)-4,5,6,7-tetrahydro-2H-indazol-2-yl)-2,2-dimethylpropanoic acid]: 11.9 µM and 0.104 µM.
Consider `COC(=O)C1=C(C2CCc3nn(CCC(=O)O)cc3C2)NC(c2nccs2)=NC1c1ccc(F)cc1Br` (single isomer, unassigned) [Compound 48b, 3-(5-(6-(2-Bromo-4-fluorophenyl)-5-(methoxycarbonyl)-2-(thiazol-2-yl)-3,6-dihydropyrimidin-4-yl)-4,5,6,7-tetrahydro-2H-indazol-2-yl)propanoic acid], for which the CC50 in the data set with HepG2.2.15 cells is 80 µM. For the same molecule, in the data set on HBV, the EC50 came to 0.6 µM.
The molecule `COC(=O)C1=C(C2CCc3nc([C@H]4C[C@H](C(=O)O)C4)sc3C2)NC(c2nccs2)=NC1c1ccc(F)c(F)c1Cl` (single isomer, unassigned) [Compound 68b, (trans)-3-(-6-(-6-(2-chloro-3,4-difluorophenyl)-5-(methoxycarbonyl)-2-(thiazol-2-yl)-3,6-dihydropyrimidin-4-yl)-4,5,6,7-tetrahydrobenzo[d]thiazol-2-yl)cyclobutanecarboxylic acid] returned a CC50 in the data set on HepG2.2.15 cells of 8.3 µM. For the same molecule, the EC50 in the data set on HBV (Hepatitis B virus, HepG2.2.15, 144 h) is 0.009 µM.
In the case of `CCOC(=O)C1=C(C2CCc3nn(CCC(=O)O)cc3C2)NC(c2nccs2)=NC1c1ccc(F)cc1C` (single isomer, unassigned) [Compound 38c, 3-(5-(5-(Ethoxycarbonyl)-6-(4-fluoro-2-methylphenyl)-2-(thiazol-2-yl)-3,6-dihydropyrimidin-4-yl)-4,5,6,7-tetrahydro-2H-indazol-2-yl)propanoic acid], in the data set with HepG2.2.15 cells, the half-maximal cytotoxic concentration (CC50) was 19.6 µM. Also, the EC50 in the data set with HBV is 0.0146 µM.
`CCOC(=O)C1=C(C2CCc3nn(CCC(=O)O)cc3C2)NC(c2ncc(F)cc2F)=NC1c1ccc(F)c(F)c1Cl` (single isomer, unassigned) [Compound 43c, 3-(5-(6-(2-Chloro-3,4-difluorophenyl)-2-(3,5-difluoropyridin-2-yl)-5-(ethoxycarbonyl)-3,6-dihydropyrimidin-4-yl)-4,5,6,7-tetrahydro-2H-indazol-2-yl)propanoic acid] had a CC50 in the data set with HepG2.2.15 cells of 29.9 µM. Besides, in the data set on HBV, the EC50 stood at 0.0059 µM.
The matching figures for `COC(=O)C1=C(C2CCc3nc([C@H]4C[C@H](C(=O)O)C4)oc3C2)NC(c2nccs2)=NC1c1ccc(F)c(F)c1Cl` (single isomer, unassigned) [Compound 72c, (trans)-3-(6-(6-(2-Chloro-3,4-difluorophenyl)-5-(methoxycarbonyl)-2-(thiazol-2-yl)-3,6-dihydropyrimidin-4-yl)-4,5,6,7-tetrahydrobenzo[d]oxazol-2-yl)cyclobutanecarboxylic acid]: 8.7 µM and 0.0902 µM.
For `CCOC(=O)C1=C(C2CCc3nn(CCC(=O)O)cc3C2)NC(c2nccs2)=NC1c1ccc(F)cc1Cl` (single isomer, unassigned) [Compound 37c, 3-(5-(6-(2-Chloro-4-fluorophenyl)-5-(ethoxycarbonyl)-2-(thiazol-2-yl)-3,6-dihydropyrimidin-4-yl)-4,5,6,7-tetrahydro-2H-indazol-2-yl)propanoic acid] the same measures were 21.1 µM and 0.0222 µM.
For `CCOC(=O)C1=C(C2CCc3sc(CCC(=O)O)nc3C2)NC(c2nccs2)=NC1c1ccc(F)c(F)c1Cl` (single isomer, unassigned) [Compound 59f, 3-(5-(6-(2-Chloro-3,4-difluorophenyl)-5-(ethoxycarbonyl)-2-(thiazol-2-yl)-3,6-dihydropyrimidin-4-yl)-4,5,6,7-tetrahydrobenzo[d]thiazol-2-yl)propanoic acid] the same measures were 5.8 µM and 0.209 µM.
The molecule `CCOC(=O)C1=C(C2CCc3nn(CCC(=O)O)cc3C2)NC(c2nccs2)=NC1c1ccc(F)c(F)c1C` (single isomer, unassigned) [Compound 35c, 3-(5-(6-(3,4-Difluoro-2-methylphenyl)-5-(ethoxycarbonyl)-2-(thiazol-2-yl)-3,6-dihydropyrimidin-4-yl)-4,5,6,7-tetrahydro-2H-indazol-2-yl)propanoic acid] gave a CC50 in the data set on HepG2.2.15 cells of 14.4 µM. Moreover, the EC50 in the data set on HBV is less than 0.0046 µM.
In turn, `COC(=O)C1=C(C2CCc3nc([C@H]4C[C@H](C(=O)O)C4)sc3C2)NC(c2nccs2)=NC1c1ccc(F)c(F)c1Cl` (single isomer, unassigned) [Compound 68c, (trans)-3-(6-(-6-(2-chloro-3,4-difluorophenyl)-5-(methoxycarbonyl)-2-(thiazol-2-yl)-3,6-dihydropyrimidin-4-yl)-4,5,6,7-tetrahydrobenzo[d]thiazol-2-yl)cyclobutanecarboxylic acid] showed a CC50 in the data set with HepG2.2.15 cells of 3.6 µM. In the data set with HBV, the concentration giving a half-maximal response (EC50) stood at 0.00645 µM.
The matching figures for `CCOC(=O)C1=C(C2CCc3nn(CC(=O)O)cc3C2)NC(c2nccs2)=NC1c1ccc(F)c(F)c1Cl` (single isomer, unassigned) [Compound 49c]: 25.4 µM and 0.11 µM.
In the data set with HepG2.2.15 cells, `CCOC(=O)C1=C(C2CCc3nc(CCC(=O)O)oc3C2)NC(c2nccs2)=NC1c1ccc(F)c(F)c1Cl` (single isomer, unassigned) [Compound 58d, 3-(6-(6-(2-Chloro-3,4-difluorophenyl)-5-(ethoxycarbonyl)-2-(thiazol-2-yl)-3,6-dihydropyrimidin-4-yl)-4,5,6,7-tetrahydrobenzo[d]oxazol-2-yl)propanoic acid] yielded a CC50 of 10.8 µM. Besides, the EC50 in the data set with HBV was found to be 0.0092 µM.
For `CCOC(=O)C1=C(C2CCc3nn(CCC(=O)O)cc3C2)NC(c2nccs2)=NC1c1ccc(F)cc1Cl` (single isomer, unassigned) [Compound 37d, 3-(5-(6-(2-Chloro-4-fluorophenyl)-5-(ethoxycarbonyl)-2-(thiazol-2-yl)-3,6-dihydropyrimidin-4-yl)-4,5,6,7-tetrahydro-2H-indazol-2-yl)propanoic acid] the same measures were 18.9 µM and 0.88 µM.

As usually defined, the CC50 is the concentration at which the toxic effect on the cells reaches its halfway point. A low value points to greater toxicity to the cells. What is called EC50 is the midpoint of the concentration-response curve.
